Reference: PMC5218480 (PLoS ONE, 2017)

Tested on: MV-4-11 cells
Test: Gene expression microarray analysis (Affymetrix PrimeView) and GSEA
Type: cell-based, human
Parameters: RFU PODN (11730768_x_at) / Fold change /veh PODN (11730768_x_at) / RFU LINC00158 (11744669_a_at) / Fold change /veh LINC00158 (11744669_a_at) / RFU DUSP10 (11751237_a_at) / Fold change /veh DUSP10 (11751237_a_at) / RFU ID3 (11757404_x_at) / Fold change /veh ID3 (11757404_x_at) / RFU PLEKHG5 (11737974_s_at) / Fold change /veh PLEKHG5 (11737974_s_at) / RFU LRRC4B (11730491_at) / Fold change /veh LRRC4B (11730491_at) / RFU GIMAP4 (11747438_a_at) / Fold change /veh GIMAP4 (11747438_a_at) / RFU KRT8 (11758183_x_at) / Fold change /veh KRT8 (11758183_x_at) / RFU CNN1 (11734310_a_at) / Fold change /veh CNN1 (11734310_a_at) / RFU VPS37D (11726825_at) / Fold change /veh VPS37D (11726825_at) / RFU C10orf10 (11716522_x_at) / Fold change /veh C10orf10 (11716522_x_at) / RFU KIR2DL2 /// KIR2DL4 /// KIR2DL5A /// KIR2DL5B /// KIR2DS1 /// KIR2DS2 /// KIR2DS3 /// KIR2DS4 /// KIR3DL3 /// KIR3DL3 /// KIR3DS1 (11738374_at) / Fold change /veh KIR2DL2 /// KIR2DL4 /// KIR2DL5A /// KIR2DL5B /// KIR2DS1 /// KIR2DS2 /// KIR2DS3 /// KIR2DS4 /// KIR3DL3 /// KIR3DL3 /// KIR3DS1 (11738374_at) / RFU C1QL1 (11718748_at) / Fold change /veh C1QL1 (11718748_at) / RFU TMPRSS4 (11747572_a_at) / Fold change /veh TMPRSS4 (11747572_a_at) / RFU HAMP (11756126_x_at) / Fold change /veh HAMP (11756126_x_at) / RFU RNFT2 (11725882_a_at) / Fold change /veh RNFT2 (11725882_a_at) / RFU NR4A2 (11747474_a_at) / Fold change /veh NR4A2 (11747474_a_at) / RFU ABCC12 (11746883_a_at) / Fold change /veh ABCC12 (11746883_a_at) / RFU TMEM136 (11760407_x_at) / Fold change /veh TMEM136 (11760407_x_at) / RFU CLDN22 /// WWC2 (11732394_at) / Fold change /veh CLDN22 /// WWC2 (11732394_at) / RFU HLA-DPB1 (11760878_x_at) / Fold change /veh HLA-DPB1 (11760878_x_at) / RFU SPINT1 (11716480_a_at) / Fold change /veh SPINT1 (11716480_a_at) / RFU GAP43 (11754022_s_at) / Fold change /veh GAP43 (11754022_s_at) / RFU A4GNT (11735810_at) / Fold change /veh A4GNT (11735810_at) / RFU PRB3 (11715151_x_at) / Fold change /veh PRB3 (11715151_x_at) / RFU TUBB4B (11761932_at) / Fold change /veh TUBB4B (11761932_at) / RFU CAPN14 (11732068_a_at) / Fold change /veh CAPN14 (11732068_a_at) / RFU TMCC2 (11721928_a_at) / Fold change /veh TMCC2 (11721928_a_at) / RFU IRGQ (11745062_a_at) / Fold change /veh IRGQ (11745062_a_at) / RFU FAM174B (11720279_a_at) / Fold change /veh FAM174B (11720279_a_at) / RFU TMPRSS4 (11748680_a_at) / Fold change /veh TMPRSS4 (11748680_a_at) / RFU FAM212B (11763350_a_at) / Fold change /veh FAM212B (11763350_a_at) / RFU PLEKHG5 (11743358_a_at) / Fold change /veh PLEKHG5 (11743358_a_at) / RFU ZSCAN30 (11745921_a_at) / Fold change /veh ZSCAN30 (11745921_a_at) / RFU CMKLR1 (11741424_a_at) / Fold change /veh CMKLR1 (11741424_a_at) / RFU LOC101060620 /// MAPK8IP1 (11723275_at) / Fold change /veh LOC101060620 /// MAPK8IP1 (11723275_at) / RFU SPTSSB (11747773_x_at) / Fold change /veh SPTSSB (11747773_x_at) / RFU PRSS12 (11739890_at) / Fold change /veh PRSS12 (11739890_at) / RFU BIN1 (11741810_x_at) / Fold change /veh BIN1 (11741810_x_at) / RFU WNT11 (11732464_a_at) / Fold change /veh WNT11 (11732464_a_at) / RFU C10orf10 (11716521_a_at) / Fold change /veh C10orf10 (11716521_a_at) / RFU C5orf56 (11738089_at) / Fold change /veh C5orf56 (11738089_at) / RFU CYB561 (11721691_x_at) / Fold change /veh CYB561 (11721691_x_at) / RFU ANKRD19P (11752326_a_at) / Fold change /veh ANKRD19P (11752326_a_at) / RFU OR2T12 /// OR2T33 /// OR2T8 (11738714_s_at) / Fold change /veh OR2T12 /// OR2T33 /// OR2T8 (11738714_s_at) / RFU VCAN (11748164_a_at) / Fold change /veh VCAN (11748164_a_at) / RFU JSRP1 (11732532_at) / Fold change /veh JSRP1 (11732532_at) / RFU KRTAP10-11 (11738290_x_at) / Fold change /veh KRTAP10-11 (11738290_x_at) / RFU MYO3A (11730013_a_at) / Fold change /veh MYO3A (11730013_a_at) / RFU EBF3 (11725865_a_at) / Fold change /veh EBF3 (11725865_a_at) / RFU CAMK2N1 (11719241_x_at) / Fold change /veh CAMK2N1 (11719241_x_at) / RFU C5orf56 (11738088_a_at) / Fold change /veh C5orf56 (11738088_a_at) / RFU OLFML3 (11715873_a_at) / Fold change /veh OLFML3 (11715873_a_at) / RFU LOC100653217 /// NTM (11731650_a_at) / Fold change /veh LOC100653217 /// NTM (11731650_a_at) / RFU MAPK11 (11762145_a_at) / Fold change /veh MAPK11 (11762145_a_at) / RFU FIZ1 (11724087_x_at) / Fold change /veh FIZ1 (11724087_x_at) / RFU OASL (11726364_x_at) / Fold change /veh OASL (11726364_x_at) / RFU SOX15 (11748057_x_at) / Fold change /veh SOX15 (11748057_x_at) / RFU CD79A (11719716_a_at) / Fold change /veh CD79A (11719716_a_at) / RFU HIST1H1D (11736915_at) / Fold change /veh HIST1H1D (11736915_at) / RFU CASKIN2 (11723855_a_at) / Fold change /veh CASKIN2 (11723855_a_at) / RFU LOC730098 (11760151_x_at) / Fold change /veh LOC730098 (11760151_x_at) / RFU OR4N2 (11742367_at) / Fold change /veh OR4N2 (11742367_at) / RFU PRRT2 (11749266_a_at) / Fold change /veh PRRT2 (11749266_a_at) / RFU SNX32 (11753110_a_at) / Fold change /veh SNX32 (11753110_a_at) / RFU CDHR5 (11726645_a_at) / Fold change /veh CDHR5 (11726645_a_at) / RFU RCAN1 (11760418_a_at) / Fold change /veh RCAN1 (11760418_a_at) / RFU FAM167A (11723789_a_at) / Fold change /veh FAM167A (11723789_a_at) / RFU FAM26E (11764081_at) / Fold change /veh FAM26E (11764081_at) / RFU ISYNA1 (11749810_s_at) / Fold change /veh ISYNA1 (11749810_s_at) / RFU ACY1 (11761880_at) / Fold change /veh ACY1 (11761880_at) / RFU 11764098_at / Fold change /veh 11764098_at / RFU SAMD14 (11745864_x_at) / Fold change /veh SAMD14 (11745864_x_at) / RFU NPB (11741838_a_at) / Fold change /veh NPB (11741838_a_at) / RFU TMPRSS6 (11731388_a_at) / Fold change /veh TMPRSS6 (11731388_a_at) / RFU KRTAP10-2 (11738614_at) / Fold change /veh KRTAP10-2 (11738614_at) / RFU ARHGAP8 /// PRR5-ARHGAP8 (11727945_x_at) / Fold change /veh ARHGAP8 /// PRR5-ARHGAP8 (11727945_x_at) / RFU KRTAP5-7 /// NADSYN1 (11734609_at) / Fold change /veh KRTAP5-7 /// NADSYN1 (11734609_at) / RFU RASL12 (11751679_a_at) / Fold change /veh RASL12 (11751679_a_at) / RFU CDKN2B (11736163_a_at) / Fold change /veh CDKN2B (11736163_a_at) / RFU PRF1 (11729649_at) / Fold change /veh PRF1 (11729649_at) / RFU, ZNF638 /// ZNF638-IT1 / Fold change vs veh, ZNF638 /// ZNF638-IT1 / RFU, PANK3 / Fold change vs veh, PANK3 / RFU, SH3YL1 / Fold change vs veh, SH3YL1 / RFU, ZEB2 / Fold change vs veh, ZEB2 / RFU, NRIP1 / Fold change vs veh, NRIP1 / RFU, PTTG1IP / Fold change vs veh, PTTG1IP / RFU, CAPN2 / Fold change vs veh, CAPN2 / RFU, MED14 / Fold change vs veh, MED14 / RFU, SNORA58 / Fold change vs veh, SNORA58 / RFU, C1orf63 / Fold change vs veh, C1orf63 / RFU, LRRFIP1 / Fold change vs veh, LRRFIP1 / RFU, NDUFAF7 / Fold change vs veh, NDUFAF7 / RFU, SLC12A2 / Fold change vs veh, SLC12A2 / RFU, IBTK / Fold change vs veh, IBTK / RFU, ESF1 / Fold change vs veh, ESF1 / Fold change vs veh, TMEM50B / RFU, TAOK1 / Fold change vs veh, TAOK1 / RFU, ACBD3 / Fold change vs veh, ACBD3 / RFU, TMA16 / Fold change vs veh, TMA16 / RFU, RWDD3 / Fold change vs veh, RWDD3 / RFU, BCAT1 / Fold change vs veh, BCAT1 / RFU, EDEM3 / Fold change vs veh, EDEM3 / RFU, TMEM33 / Fold change vs veh, TMEM33 / RFU, WDR75 / Fold change vs veh, WDR75 / RFU, AHCTF1 / Fold change vs veh, AHCTF1 / RFU, TFRC / Fold change vs veh, TFRC / RFU, ZDHHC17 / Fold change vs veh, ZDHHC17 / RFU, NOM1 / Fold change vs veh, NOM1 / RFU, ARL8B / Fold change vs veh, ARL8B / RFU, ZBTB11 / Fold change vs veh, ZBTB11 / RFU, TAMM41 / Fold change vs veh, TAMM41 / RFU, KIAA1704 /// LOC100996395 / Fold change vs veh, KIAA1704 /// LOC100996395 / RFU, ING1 / Fold change vs veh, ING1 / RFU, TRMT61B / Fold change vs veh, TRMT61B / RFU, FUBP3 / Fold change vs veh, FUBP3 / RFU, TP53 / Fold change vs veh, TP53 / RFU, TNKS2 / Fold change vs veh, TNKS2 / RFU, ZFP14 / Fold change vs veh, ZFP14 / RFU, ACTR2 / Fold change vs veh, ACTR2 / RFU, PPP3R1 / Fold change vs veh, PPP3R1 / RFU, PIK3R1 / Fold change vs veh, PIK3R1 / RFU, HNRNPA1 / Fold change vs veh, HNRNPA1 / RFU, RNF170 / Fold change vs veh, RNF170 / RFU, ZNF28 / Fold change vs veh, ZNF28 / RFU, RNGTT / Fold change vs veh, RNGTT / RFU, OGT / Fold change vs veh, OGT / RFU, BRD1 / Fold change vs veh, BRD1 / RFU, MARS / Fold change vs veh, MARS / RFU, ZNF655 / Fold change vs veh, ZNF655 / RFU, FAHD1 / Fold change vs veh, FAHD1 / RFU, BDP1 / Fold change vs veh, BDP1 / RFU, LRRCC1 / Fold change vs veh, LRRCC1 / RFU, ARID1A / Fold change vs veh, ARID1A / RFU, ZNF146 / Fold change vs veh, ZNF146 / RFU, ZNF330 / Fold change vs veh, ZNF330 / RFU, GPN3 / Fold change vs veh, GPN3 / RFU, C9orf123 / Fold change vs veh, C9orf123 / RFU, N4BP2L2 / Fold change vs veh, N4BP2L2 / RFU, ARFIP1 / Fold change vs veh, ARFIP1 / RFU, FAM179B / Fold change vs veh, FAM179B / RFU, BCL10 / Fold change vs veh, BCL10 / RFU, UHRF1BP1L / Fold change vs veh, UHRF1BP1L / RFU, BET1 / Fold change vs veh, BET1 / RFU, CNOT2 / Fold change vs veh, CNOT2 / RFU, ZNF268 / Fold change vs veh, ZNF268 / Fold change vs veh, ZNF507 / RFU, DGCR2 / Fold change vs veh, DGCR2 / RFU, WDSUB1 / Fold change vs veh, WDSUB1 / Fold change vs veh, HSP90B1 /// MIR3652 / RFU, ADSS / Fold change vs veh, ADSS / RFU, GK / Fold change vs veh, GK / RFU, ZNF148 / Fold change vs veh, ZNF148 / RFU, TAF9 / Fold change vs veh, TAF9 / RFU, SLC1A5 / Fold change vs veh, SLC1A5 / RFU, SLMO2 / Fold change vs veh, SLMO2 / RFU, ABCC4 / Fold change vs veh, ABCC4 / RFU, LOC101060439 /// RAP1B / Fold change vs veh, LOC101060439 /// RAP1B / RFU, RFX7 / Fold change vs veh, RFX7 / RFU, GTPBP10 / Fold change vs veh, GTPBP10 / RFU, CNEP1R1 / Fold change vs veh, CNEP1R1 / RFU, BIVM-ERCC5 /// ERCC5 / Fold change vs veh, BIVM-ERCC5 /// ERCC5 / RFU, ILF3 / Fold change vs veh, ILF3 / RFU 11762660_at / Fold change /veh 11762660_at / RFU VCAN (11757783_s_at) / Fold change /veh VCAN (11757783_s_at) / RFU DDX43 (11728927_at) / Fold change /veh DDX43 (11728927_at) / RFU KRT8 (11758188_x_at) / Fold change /veh KRT8 (11758188_x_at) / RFU NKD1 (11759106_at) / Fold change /veh NKD1 (11759106_at) / RFU SRD5A1 (11742802_a_at) / Fold change /veh SRD5A1 (11742802_a_at) / RFU TPSAB1 /// TPSB2 (11721975_s_at) / Fold change /veh TPSAB1 /// TPSB2 (11721975_s_at) / RFU GSTM3 (11746129_a_at) / Fold change /veh GSTM3 (11746129_a_at) / RFU IL23R (11737362_x_at) / Fold change /veh IL23R (11737362_x_at) / RFU TMEM51 (11727254_a_at) / Fold change /veh TMEM51 (11727254_a_at) / RFU PIWIL2 (11732686_x_at) / Fold change /veh PIWIL2 (11732686_x_at) / RFU ORM1 (11744905_x_at) / Fold change /veh ORM1 (11744905_x_at) / RFU CCDC152 (11743942_at) / Fold change /veh CCDC152 (11743942_at) / RFU ECM1 (11717891_a_at) / Fold change /veh ECM1 (11717891_a_at) / RFU IL23R (11748794_a_at) / Fold change /veh IL23R (11748794_a_at) / RFU TNFAIP8L3 (11732012_x_at) / Fold change /veh TNFAIP8L3 (11732012_x_at) / RFU MBOAT4 (11741988_at) / Fold change /veh MBOAT4 (11741988_at) / RFU 11764193_at / Fold change /veh 11764193_at / RFU TMEM53 (11763286_at) / Fold change /veh TMEM53 (11763286_at) / RFU MAGEB2 (11727129_at) / Fold change /veh MAGEB2 (11727129_at) / RFU TMEM200A (11744735_a_at) / Fold change /veh TMEM200A (11744735_a_at) / RFU CCDC152 (11751479_a_at) / Fold change /veh CCDC152 (11751479_a_at) / RFU FAM211A (11726209_a_at) / Fold change /veh FAM211A (11726209_a_at) / RFU RGS16 (11746705_a_at) / Fold change /veh RGS16 (11746705_a_at) / RFU VCAN (11755009_s_at) / Fold change /veh VCAN (11755009_s_at) / RFU RHOB (11743442_s_at) / Fold change /veh RHOB (11743442_s_at) / RFU RGS16 (11720943_a_at) / Fold change /veh RGS16 (11720943_a_at) / RFU RGS16 (11720944_at) / Fold change /veh RGS16 (11720944_at) / RFU, VPS4B / Fold change vs veh, VPS4B / RFU, CREB1 / Fold change vs veh, CREB1 / RFU, DNAJC13 / Fold change vs veh, DNAJC13 / RFU, GNAQ / Fold change vs veh, GNAQ / RFU, CDK5R1 / Fold change vs veh, CDK5R1 / RFU, ZRANB3 / Fold change vs veh, ZRANB3 / RFU, CUL4A / Fold change vs veh, CUL4A / RFU, CCNY / Fold change vs veh, CCNY / RFU, UFL1 / Fold change vs veh, UFL1 / RFU, COG3 / Fold change vs veh, COG3 / RFU, DIAPH2 / Fold change vs veh, DIAPH2 / RFU, SKA2 / Fold change vs veh, SKA2 / RFU, AFF3 / Fold change vs veh, AFF3 / RFU, LMF1 / Fold change vs veh, LMF1 / RFU, IPO11 / Fold change vs veh, IPO11 / RFU, DFFB / Fold change vs veh, DFFB / RFU, FOXP1 / Fold change vs veh, FOXP1 / RFU, CARD8 / Fold change vs veh, CARD8 / RFU, STRN3 / Fold change vs veh, STRN3 / RFU, ADK / Fold change vs veh, ADK / RFU, RASSF2 / Fold change vs veh, RASSF2 / RFU, WIPF1 / Fold change vs veh, WIPF1 / RFU, LARP1B / Fold change vs veh, LARP1B / RFU, RASA1 / Fold change vs veh, RASA1 / RFU, RB1 / Fold change vs veh, RB1 / RFU, PPFIA1 / Fold change vs veh, PPFIA1 / RFU, MAT2A / Fold change vs veh, MAT2A / RFU, CCT5 / Fold change vs veh, CCT5 / RFU, WDR92 / Fold change vs veh, WDR92 / RFU, CUX1 / Fold change vs veh, CUX1 / RFU, TTC7A / Fold change vs veh, TTC7A / RFU, TMEM135 / Fold change vs veh, TMEM135 / RFU, DEPTOR / Fold change vs veh, DEPTOR / RFU, CPM / Fold change vs veh, CPM / RFU, DNAJB6 / Fold change vs veh, DNAJB6 / RFU, CACNA2D3 / Fold change vs veh, CACNA2D3 / RFU, DTX4 / Fold change vs veh, DTX4 / RFU, TFCP2 / Fold change vs veh, TFCP2 / RFU, GMCL1 /// GMCL1P1 / Fold change vs veh, GMCL1 /// GMCL1P1 / RFU, AEBP2 / Fold change vs veh, AEBP2 / RFU, SNHG1 /// SNORD22 /// SNORD25 /// SNORD26 /// SNORD27 /// SNORD28 /// SNORD29 /// SNORD31 / Fold change vs veh, SNHG1 /// SNORD22 /// SNORD25 /// SNORD26 /// SNORD27 /// SNORD28 /// SNORD29 /// SNORD31 / Fold change (Aza/veh), C12orf56 (ProbeSet 11735607_a_at) / Fold change (ACY-1035/veh), C12orf56 (ProbeSet 11735607_a_at) / Fold change (Aza/veh), FGFR1OP (ProbeSet 11751329_s_at) / Fold change (ACY-1035/veh), FGFR1OP (ProbeSet 11751329_s_at) / Fold change (Aza/veh), VPS36 (ProbeSet 11739960_a_at) / Fold change (ACY-1035/veh), VPS36 (ProbeSet 11739960_a_at) / RFU SYPL1 (11715823_x_at) / Fold change /veh SYPL1 (11715823_x_at) / RFU IGFBP7 (11715501_s_at) / Fold change /veh IGFBP7 (11715501_s_at) / RFU REEP3 (11722064_at) / Fold change /veh REEP3 (11722064_at) / RFU IGLL1 (11728026_x_at) / Fold change /veh IGLL1 (11728026_x_at): dose or concentration left out as unconfirmed
Conditions: MV-4-11 cells, 48 hours

Nc1ccc(-c2cccs2)cc1NC(=O)c1ccc2c(c1)cc(C1CC1)n2CCN1CCOCC1 [ACY-1035]
RFU OR4N2 (11742367_at): 72.30 RFU
